Drawing on the SangsterLogP compilation, this text covers logD for 22 compounds.

This series can be described thus: method code SF-AS, from PMID: 1608988. The settings on record: pH 7.3.
On to `CCCCOc1ccc(NC(=O)OCCN2CCOCC2)cc1`, for which the logD – broadly, the decadic logarithm of the distribution of all forms, ionised or not, between an organic phase and buffer at a given pH – is 2.8.

`CCCCCCCCOc1ccccc1NC(=O)OCCN1CCOCC1` showed a logD of 4.43.

Compound `CCOc1ccccc1NC(=O)OCCN1CCOCC1` gave a logD of 1.76.

In turn, `CCCCCCCCOc1cccc(NC(=O)OCCN2CCOCC2)c1` came in with a logD of 4.42.

`CCCCCCOc1ccc(NC(=O)OCCN2CCOCC2)cc1` showed a logD of 3.96.

On to `CCCCOc1cccc(NC(=O)OCCN2CCOCC2)c1`, for which the logD amounted to 3.08.

As for `CCCOc1cccc(NC(=O)OCCN2CCOCC2)c1`, the logD worked out at 2.5.

`CCCCCOc1cccc(NC(=O)OCCN2CCOCC2)c1` returned a logD of 3.58.

Regarding `CCCCCCOc1ccccc1NC(=O)OCCN1CCOCC1`, the logD is 3.68.

Regarding `CCCCCCCOc1ccc(NC(=O)OCCN2CCOCC2)cc1`, the logD was 4.41.

In the case of `CCOc1ccc(NC(=O)OCCN2CCOCC2)cc1`, the logD is 1.63.

`CCCCCCOc1cccc(NC(=O)OCCN2CCOCC2)c1` displayed a logD of 4.19.

Regarding `CCCCCCCCOc1ccc(NC(=O)OCCN2CCOCC2)cc1`, the logD turned out to be 4.8.

`CCCOc1ccccc1NC(=O)OCCN1CCOCC1` returned a logD of 2.26.

The compound `COc1ccccc1NC(=O)OCCN1CCOCC1` showed a logD of 1.2.

Regarding `COc1cccc(NC(=O)OCCN2CCOCC2)c1`, the logD turned out to be 1.64.

On to `CCCCOc1ccccc1NC(=O)OCCN1CCOCC1`, for which the logD stood at 2.73.

With `CCCCCOc1ccccc1NC(=O)OCCN1CCOCC1`, the logD worked out at 3.18.

`CCCOc1ccc(NC(=O)OCCN2CCOCC2)cc1` came in with a logD of 2.24.

The compound `CCCCCCCOc1ccccc1NC(=O)OCCN1CCOCC1` yielded a logD of 3.99.

On to `CCCCCOc1ccc(NC(=O)OCCN2CCOCC2)cc1`, for which the logD came out at 3.41.

On to `CCCCCCCOc1cccc(NC(=O)OCCN2CCOCC2)c1`, for which the logD was found to be 4.73.
